Laboratory results taken from US4956363A, “Treatment of cognitive and behavioral disorders associated with aging and with dementia syndromes” (U C B S.A., priority 1988, dated 1990).
Entries after “also recorded” stand apart in the source; their conditions may differ.

Tests used:
[1] = system: effects of scopolamine on the EEG, band from 6.4 to 9.6 Hz; test: Inhibition of the effects of scopolamine on the electroencephalogram (EEG); type: in vivo, rats (male albino Sprague-Dawley SPF); conditions: for Inhibition of the effects of scopolamine on the band from 6.4 to 9.6 Hz in the EEG: rats, i.p. at the dose (mg/kg) of the line in Table IV, scopolamine 0.5 mg/kg i.p.
Method: Male albino Sprague-Dawley SPF rats (160 to 200 g) are used in this test.
When the animals are 3 months old, 5 cortical electrodes are implanted permanently, aseptically and under a general anesthesia: one inert electrode, one left and one right frontal electrode, and one left and one right occipital electrode (P. ETEVENON, loc. cit.).
The test is carried out when the animals are about 15 months old. In the meantime, the animals are kept in individual cages. They are given water and food ad libitum and are subjected to a regular daily cycle comprising a period of darkness between 6 o'clock in the evening and 6 o'clock in the morning. At the same time, the animals are progressively acclimatized to the cages of the sound-proof cabin which they will subsequently occupy for recording of the electroencephalograms, as well as to the experimental conditions, by intraperitoneal administration of placebo. The products are administered immediately before the EEG is recorded.
The rats are divided into groups of 8 animals and 16 samples of the EEG spectra are recorded over 5 seconds (two EEG spectra per animal). The spectra obtained are then analyzed by computer (rapid Fourier transform), which enables the average of the 16 measurements performed to be determined for each group and the overall intensity of the EEG spectrum and the distribution of this intensity (in %) in the various frequency bands to be deduced for each animal.
This operation (recording of the spectra) is repeated 9 times (total duration: 121 minutes).

[2] = system: learning of the avoidance reflex; test: Multiple-trial passive avoidance: learning; type: in vivo, rats (male Sprague-Dawley); conditions: i.p. at the dose (mg/kg) of the line in Table V, 30 min before test; criterion 180 seconds on the mat
Method: To evaluate whether a compound can promote learning, the following test is carried out.
This experiment is repeated until the animal remains on the rubber mat for at least 180 seconds in order to avoid the electric shock. The learning is expressed by the average number of trials needed to reach a period of 180 seconds remaining on the mat.
A period of remaining on the rubber mat of 180 seconds is regarded as being the maximum performance which can be realized by the animal to avoid the electric shock. Rats which remain on the mat for this period have acquired the avoidance reflex and are replaced in their original cage without receiving the electric shock.
group 1 receives an intraperitoneal injection of physiological salt solution:
group 2 receives an intraperitoneal injection of the compound to be tested:
Columns 3 and 4 show the results obtained in the test used to evaluate the learning. The figures indicate the average number of trials needed for a control animal (group 1) or an animal treated (group 2) with the compound to learn to remain on the rubber mat for 180 seconds in order to avoid the electric shock. The results were analyzed by the Student test.

[3] = system: male NMRI mice; test: Toxicity, Irwin's test; type: in vivo; conditions: mice, i.p.; death of two animals out of three within 48 hours
Method: Progressive doses of the compound to be tested are administered intraperitoneally to groups of three mice until the lethal dose is reached (dose which causes the death of two animals out of three within 48 hours).

[4] = system: hyperactivity induced by scopolamine; conditions: rats placed in a new environment; in words, literature; cited from earlier work
[5] = system: memory; conditions: in words, literature; cited from earlier work
[6] = system: hyperactivity induced by scopolamine; test: Inhibition of hyperactivity induced by scopolamine; type: in vivo, rats (male Sprague-Dawley SPF); conditions: administered more than 15 minutes before the measurements; in words
[7] = system: amnesia induced by scopolamine; test: Multiple-trial passive avoidance: mnemic retention (amnesia induced by scopolamine)
Method: To this end, the method of multiple-trial passive avoidance has been used. This method is well-known for evaluating the effects which a product exerts on the memory and learning (A. FINE et al., Proc. Natl. Acad. Sci. U.S.A., 82, (1985), 5227-5230).
The test is carried out on male Sprague-Dawley rats (160-200 g). which are kept in standard cages throughout the experiment.
The apparatus used is a transparent square cage with 35 cm sides and 25 cm high, fitted with a grid floor which can be electrified. An insulating rubber mat (10×17 cm) is placed on the floor in one of the corners of the cage.
Each animal is subjected to four tests at times 0, 4, 24 and 28 hours. In the first test (time 0), the animal is placed on the rubber mat and the time which it takes to decide to leave this position to explore the cage is recorded. After 20 seconds of exploration, the rat receives an electric shock (3 seconds duration) in the paws, causing a flight reaction. The rat is immediately removed from the apparatus and replaced in its original cage. In the course of the three subsequent tests (times: 4, 24 and 28 hours), the animal is replaced on the rubber mat and the time taken to leave this position is recorded. When the four paws of the animal rest on the grid, it receives an electric shock and is immediately removed from the apparatus.
At the start of the experiment, the rats are divided into 4 homogeneous groups of 15 animals. Thirty minutes before each test, each group of animals is subjected to a predetermined treatment:
Groups 1 and 2 are used in the first experiment and groups 3 and 4 are used in the second experiment.
The differences observed are analyzed statistically by the Mann-Whitney method.

[8] = system: salivatory effect of oxotremorine (peripheral cholinergic activation); test: Potentiation of the peripheral cholinergic (salivatory) effect of oxotremorine; type: in vivo, mice (male NMRI); conditions: 20 minutes after administration at the minimum active dose; in words
Method: The degree of peripheral cholinergic activation is measured by the salivatory effect quantified by the following rating system:
score 1: a little saliva is found around the teeth;
score 2: the saliva forms a narrow band around the mouth;
score 4: the saliva wets a surface underneath the chin;
score 6: the saliva runs from the mouth, for example onto the forelegs.
The intermediate scores are not used, and the saliva is wiped away after each observation.
(§1) Male NMRI mice (20 to 25 g) are divided into four groups of five animals, that is to say: one control group and three treated groups.
The compound to be tested is administered intraperitoneally (to the three treated groups) 20 minutes before the administration of the oxotremorine, at a dose which differs for each of the treated groups. […]
(§2) For each of the groups, the individual scores recorded at each observation period are summed: this enables to plot a curve showing the sum of the scores as a function of time, which is characteristic for each group.
(§3) The mean values of the areas under the curves obtained for each of the treated groups are compared with the mean value of the area under the curve corresponding to the control group and is subjected to statistical analysis by the Mann-Whitney method. From this comparison, "a minimum active dose" can be determined. […]

[9] = system: tremogenic effect of oxotremorine (central cholinergic activation); test: Potentiation of the central cholinergic (tremogenic) effect of oxotremorine; type: in vivo, mice (male NMRI)
Method: The degree of central cholinergic activation is measured by the tremogenic effect quantified by the following rating system:
score 1: slight and periodic occasional tremors;
score 2: moderate and slight tremors often repeated;
score 4: accentuated tremors, but interrupted by periods of calm;
score 6: very accentuated and almost continuous tremors.
as §1
The compound to be tested is administered intraperitoneally (to the three treated groups) 20 minutes before the administration of the oxotremorine, at a dose which differs for each of the treated groups.
The oxotremorine is administered intraperitoneally to the treated groups and to the control group at a dose of 0.05 mg/kg dissolved in 10 ml/kg of physiological salt solution. […]
as §2, §3

Compound	Inhibition of the effects of scopolamine on the band from 6.4 to 9.6 Hz in the EEG [1] [%]	Learning, average number of trials (group 2) [2]	Lethal dose [3] [mg/kg]	effect on exploratory activity [4]	effect on memory [5]	further results
CCCc1nc(NC)nc(N2CCOCC2)n1 [Compound 45, 2-(Methylamino)-4-morpholino-6-propyl-1,3,5-triazine]	91.7	2.00	821	–	–	–
CN1[C@@H]2C[C@@H](OC(=O)[C@H](CO)c3ccccc3)C[C@H]1[C@@H]1O[C@@H]12 [scopolamine]	–	–	–	induces exploratory hyperactivity	gives rise to memory deficiencies similar to those observed in elderly subjects	–
CNC(=O)Oc1ccc2c(c1)[C@]1(C)CCN(C)[C@@H]1N2C [physostigmine, reference compound]	76.8	2.30	–	counteracts the hyperactivity induced by scopolamine	an improvement in anemic disorders; also recorded: capable of combating the amnesia resulting from the administration of anticholinergic agents	activity of physostigmine on the hyperactivity induced by scopolamine [6]: inactive; effect on the EEG spectrum ([1]; scopolamine 0.5 mg/kg i.p. in rats, in words): counteracts these variations; Period of remaining on the mat, group 4, 4 hours ([7]; compound i.p. at the dose of the line + scopolamine 0.5 mg i.p., 4 h): 17.8 s; Period of remaining on the mat, group 4, 24 hours ([7]; compound i.p. at the dose of the line + scopolamine 0.5 mg i.p., 24 h): 56.2 s; Period of remaining on the mat, group 4, 28 hours ([7]; compound i.p. at the dose of the line + scopolamine 0.5 mg i.p., 28 h): 53.4 s; relation of active dose to side effects / toxic dose ([7]; dose active against the amnesing effect of scopolamine, in words): obtained at a dose which has side effects and is very close to the toxic dose; effect against the amnesing effect of scopolamine ([7]; in words): favorable action against the amnesing effect of scopolamine
COC(=O)C1=CCCN(C)C1 [arecoline, methyl 1,2,5,6-tetrahydro-1-methyl-3-pyridinecarboxylate]	–	–	–	–	–	potentiation of the salivatory effect of oxotremorine [8]: no potentiation; potentiation of the tremogenic effect of oxotremorine ([9]; 20 minutes after administration at the minimum active dose, in words): no potentiation
O=C1CCCN1CC#CCN1CCCC1 [oxotremorine]	–	–	–	–	–	minimal effective dose ([9]; Mus musculus, ip, mice, i.p., approximate, read-out: minimum dose of oxotremorine which causes tremors and salivation): ~0.05 mg/kg
CCCc1nc(N)nc(N2CCOCC2)n1 [Compound 44, 2-Amino-4-morpholino-6-propyl-1,3,5-triazine]	100	1.13	779	–	–	–
